Assay results from patent US20210276978A1, “INHIBITORS OF HISTONE DEACETYLASE” (Alkermes, Inc., priority 2018, published 2021).

Key:
Full length Human HDAC1 = target: T1, Full length Human HDAC1 (Homo sapiens, UniProt Q13547); test: HDAC1 enzymatic assay (deacetylation of FAM-labeled peptide substrate, microfluidic electrophoresis); type: biochemical; conditions: 1 uM substrate peptide
T1 construct: Full length Human HDAC1 with; His (C); FLAG (C); host or cells: baculovirus expression system
Description: (§1) HDAC2 and HDAC1 Enzymatic Assay (HDAC2 and HDAC1 IC50 Data)
(§2) The following describes an assay protocol for measuring the deacetylation of a peptide substrate by HDAC2 or HDAC1.
(§3) HDAC protein composition and respective substrate peptides are summarized below.
(§4) HDAC reactions are assembled in 384 well plates (Greiner) in a total volume of 20 µL as following:
(§5) HDAC proteins are pre-diluted in the assay buffer comprising: 100 mM HEPES, pH 7.5, 0.1% BSA, 0.01% Triton X-100, 25 mM KCl and dispensed into 384 well plate (10 uL per well).
(§6) Test compounds are serially pre-diluted in DMSO and added to the protein samples by acoustic dispensing (Labcyte Echo). Concentration of DMSO is equalized to 1% in all samples.
(§7) Control samples (0%-inhibition in the absence of inhibitor, DMSO only) and 100%-inhibition (in the absence of enzyme) are assembled in replicates of four and used to calculate the %-inhibition in the presence of compounds.
(§8) At this step compounds can be pre-incubated with enzyme if desired.
(§9) The reactions are initiated by addition of 10 uL of the FAM-labeled substrate peptide pre-diluted in the same assay buffer. Final concentration of substrate peptide is 1 uM (HDAC1-2). The reactions are allowed to proceed at room temperature. Following incubation, the reactions are quenched by addition of 50 µL of termination buffer (100 mM HEPES, pH7.5, 0.01% Triton X-100, 0.1% SDS). Terminated plates are analyzed on a microfluidic electrophoresis instrument (Caliper LabChip® 3000, Caliper Life Sciences/Perkin Elmer) which enables electrophoretic separation of de-acetylated product from acetylated substrate. A change in the relative intensity of the peptide substrate and product is the parameter measured. Activity in each test sample is determined as the product to sum ratio (PSR): P/(S+P), where P is the peak height of the product, and S is the peak height of the substrate. Percent inhibition (Pinh) is determined using the following equation: Pinh=(PSR0% inh−PSRcompound)/(PSR0% inh−PSR100% inh)*100, in which: PSRcompound is the product/sum ratio in the presence of compound, PSR0% inh is the product/sum ratio in the absence of compound and the PSR100% inh is the product/sum ratio in the absence of the enzyme. To determine IC50 of compounds (50%-inhibition) the %-inh data (Pinh versus compound concentration) are fit by a 4 parameter sigmoid dose-response model using XLfit software (IDBS).
(§10) In the table, “A” indicates a IC50 value of less than 0.5 “B” a IC50 value from 0.5 μM to 1.0 μM; “C” a IC50 value of greater than 1.0 μM and less than or equal to 2.0 μM; and “D” indicates an IC50 value of greater than 2.0 NT=Not Tested.

HDAC2 = target: T2, HDAC2 (Homo sapiens, UniProt Q92769); test: HDAC2 enzymatic inhibition assay in SH-SY5Y cell lysate with an exogenous substrate (HDAC-Glo 2); type: cell-based; conditions: for IC50: SH-SY5Y cells
T2 construct: host or cells: SH-SY5Y cells
Description: HDAC2 Enzymatic Inhibition Assay in SH-SY5Y Cell Lysate with an Exogenous Substrate
SH-SY5Y cells (Sigma) were cultured in Eagle's Modified Essential Medium supplemented with 10% fetal bovine serum and pen/strep. Twenty-four hours prior to compound dosing 20 uL of cells were plated in white 384 well plates at a density of 1,500 cells/well. Compounds were serially diluted in neat DMSO and then diluted 1:100 v/v into media without FBS and mixed. Media was removed from the plated cells and the diluted compounds in serum free media (1% v/v final DMSO) were added and incubated at 37.0 for five hours. Ten uL of HDAC-Glo 2 reagent with 0.1% Triton X-100 was then added, the plate was mixed and allowed to develop at room temperature for 100 minutes. Plates were then read with a Spectramax LMax luminometer employing a 0.4 s integration time. Dose response curves were constructed with normalized data where CI-994 at 100 uM was defined as 100% inhibition and DMSO alone as 0% inhibition.
In the table, “A” indicates a IC50 value of less than 0.5 μM; “B” a IC50 value from 0.5 μM to 1.0 μM; “C” a IC50 value of greater than 1.0 μM and less than or equal to 2.0 μM; and “D” indicates an IC50 value of greater than 2.0 μM. NT=Not Tested.

Full length Human HDAC2 = target: T3, Full length Human HDAC2 (Homo sapiens, UniProt Q92769); test: HDAC2 enzymatic assay (deacetylation of FAM-labeled peptide substrate, microfluidic electrophoresis); type: biochemical; conditions: 1 uM substrate peptide
T3 construct: Full length Human HDAC2 with; FLAG (C); host or cells: baculovirus expression system
Description: as §1, §2, §3, §4, §5, §6, §7, §8, §9, §10

[1] = five hours incubation, HDAC-Glo 2 reagent, class symbols
[2] = HDAC-Glo 2, numeric values, Table 4

T3 sequence (Q92769 whole entry): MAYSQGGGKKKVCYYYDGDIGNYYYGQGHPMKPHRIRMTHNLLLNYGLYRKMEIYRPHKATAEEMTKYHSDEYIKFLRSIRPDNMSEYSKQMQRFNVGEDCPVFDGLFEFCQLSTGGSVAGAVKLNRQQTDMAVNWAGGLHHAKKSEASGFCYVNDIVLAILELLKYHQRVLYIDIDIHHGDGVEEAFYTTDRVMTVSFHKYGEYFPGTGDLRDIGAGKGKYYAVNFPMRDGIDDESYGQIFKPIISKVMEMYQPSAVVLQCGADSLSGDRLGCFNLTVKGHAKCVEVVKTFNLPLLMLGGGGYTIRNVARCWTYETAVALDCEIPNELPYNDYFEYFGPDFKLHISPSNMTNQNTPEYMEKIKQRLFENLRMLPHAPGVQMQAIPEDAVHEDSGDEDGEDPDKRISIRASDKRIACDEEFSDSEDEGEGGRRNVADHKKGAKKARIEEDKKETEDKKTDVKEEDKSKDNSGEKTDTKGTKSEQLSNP
T2 sequence (Q92769 whole entry): as above
T1 sequence (Q13547 whole entry): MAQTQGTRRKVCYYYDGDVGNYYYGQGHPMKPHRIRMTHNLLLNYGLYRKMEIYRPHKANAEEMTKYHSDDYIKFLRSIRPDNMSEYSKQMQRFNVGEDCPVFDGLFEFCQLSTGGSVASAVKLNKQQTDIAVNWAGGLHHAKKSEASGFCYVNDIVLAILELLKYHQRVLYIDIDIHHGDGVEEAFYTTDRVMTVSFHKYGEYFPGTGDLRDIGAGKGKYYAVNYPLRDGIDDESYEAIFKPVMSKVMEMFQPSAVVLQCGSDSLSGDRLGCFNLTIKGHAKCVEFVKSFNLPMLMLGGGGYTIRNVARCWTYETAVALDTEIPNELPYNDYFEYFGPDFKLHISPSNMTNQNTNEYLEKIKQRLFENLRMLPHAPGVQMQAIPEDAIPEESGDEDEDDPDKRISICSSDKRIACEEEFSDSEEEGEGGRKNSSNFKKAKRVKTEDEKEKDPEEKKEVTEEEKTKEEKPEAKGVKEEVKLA

SMILES | IC50 (Full length Human HDAC1) | IC50 (HDAC2; [1]) | IC50 (Full length Human HDAC2) | IC50 (HDAC2; [2]) | potency compared with Comparators A-C (HDAC2; HDAC2 SH-SY5Y cell lysate assay)
Nc1ccc(-c2ccc(F)cc2F)nc1NC(=O)N1CCC(c2ncccn2)C1 (single isomer, unassigned) [Compound 8E2] | 1000 to 2000 nM |  | 1000 to 2000 nM |  | 
Cc1cnc(C2CCN(C(=O)Nc3nc(-c4ccc(F)cc4F)ccc3N)C2)nc1 (centres unmarked) [Compound 33] |  | > 2000 nM |  |  | 
Cc1nccc(C2CCN(C(=O)Nc3nc(-c4ccc(F)cc4F)ccc3N)C2)n1 (centres unmarked) [Compound 15] |  | > 2000 nM |  |  | 
Nc1ccc(-c2ccc(F)cc2)nc1NC(=O)N1CCC(C(F)(F)F)C1 (centres unmarked) [Comparator C, reference compound] |  |  |  | 6360 nM | 
Nc1ccc(-c2ccc(F)cc2F)nc1NC(=O)N1CCC(Oc2cccnn2)C1 (centres unmarked) [Compound 22] |  | > 2000 nM |  |  | 
Nc1ccc(-c2ccc(F)cc2)nc1NC(=O)N1CCCC1 [Comparator A, reference compound] |  |  |  | 2640 nM | 
Cc1cc(C)nc(C2CCN(C(=O)Nc3nc(-c4ccc(F)cc4F)ccc3N)C2)n1 (centres unmarked) [Compound 16] |  | > 2000 nM |  |  | 
Cc1cnc(CC2CCN(C(=O)Nc3nc(-c4ccc(F)cc4F)ccc3N)C2)o1 (centres unmarked) [Compound 47] |  | > 2000 nM |  |  | 
Nc1ccc(-c2ccc(F)cc2F)nc1NC(=O)N1CCC(Cc2cccnc2)C1 (centres unmarked) [Compound 31] |  | > 2000 nM |  |  | 
Nc1ccc(-c2ccc(F)cc2F)nc1NC(=O)N1CCC(c2ncccn2)C1 (single isomer, unassigned) [Compound 8E1] | < 500 nM |  | < 500 nM |  | 
Nc1ccc(-c2ccc(F)cc2F)nc1NC(=O)N1CCC(c2cnc(C(F)F)cn2)C1 (centres unmarked) [Compound 37] |  | > 2000 nM |  |  | 
Nc1ccc(-c2ccc(F)cc2F)nc1NC(=O)N1CCC(Cn2cccn2)C1 (centres unmarked) [Compound 35] |  | > 2000 nM |  |  | 
Cc1cc(C2CCN(C(=O)Nc3nc(-c4ccc(F)cc4F)ccc3N)C2)nc(C)n1 (centres unmarked) [Compound 13] |  | > 2000 nM |  |  | 
Nc1ccc(-c2ccc(F)cc2)nc1NC(=O)N1CCC(F)(F)C1 [Comparator B, reference compound] |  |  |  | 14000 nM | 
Cc1ccc(C2CCN(C(=O)Nc3nc(-c4ccc(F)cc4F)ccc3N)C2)cn1 (centres unmarked) [Compound 11] |  | > 2000 nM |  |  | 
Cc1cnc(C2CCN(C(=O)Nc3nc(-c4ccc(F)cc4F)ccc3N)C2)s1 (centres unmarked) [Compound 30] |  | > 2000 nM |  |  | 
Nc1ccc(-c2ccc(F)cc2F)nc1NC(=O)N1CC[C@@H](Oc2cccnc2)C1 [Compound 5] |  | > 2000 nM |  |  | 
COCc1cccc(C2CCN(C(=O)Nc3nc(-c4ccc(F)cc4F)ccc3N)C2)n1 (centres unmarked) [Compound 12] |  | > 2000 nM |  |  | 
Nc1ccc(-c2ccc(F)cc2F)nc1NC(=O)N1CCC(Cn2ccnc2)C1 (centres unmarked) [Compound 34] |  | > 2000 nM |  |  | 
COCC1CCN(C(=O)Nc2nc(-c3ccc(F)cc3)ccc2N)C1 (centres unmarked) [Comparator E, reference compound] |  |  |  | > 100000 nM | 

The next lines start with the values.

IC50 (Full length Human HDAC1) | IC50 (HDAC2; [1]) | IC50 (Full length Human HDAC2) | IC50 (HDAC2; [2]) | potency compared with Comparators A-C (HDAC2; HDAC2 SH-SY5Y cell lysate assay) | SMILES
< 500 nM | 500 to 1000 nM | 500 to 1000 nM |  |  | Nc1ccc(-c2ccc(F)cc2)nc1NC(=O)N1CCC(F)(c2ncc(F)cn2)C1 (single isomer, unassigned) [Compound 53]
 | > 2000 nM |  |  |  | Nc1ccc(-c2ccc(Cl)s2)nc1NC(=O)N1CCC(c2ncccn2)C1 (centres unmarked) [Compound 42]
< 500 nM | 500 to 1000 nM | < 500 nM |  |  | Nc1ccc(-c2ccc(F)cc2F)nc1NC(=O)N1CCC(F)(c2ncccn2)C1 (single isomer, unassigned) [Compound 29E1]
500 to 1000 nM | 500 to 1000 nM | 1000 to 2000 nM |  |  | Nc1ccc(-c2ccc(F)s2)nc1NC(=O)N1CCC(F)(c2ncccn2)C1 (centres unmarked) [Compound 45]
1000 to 2000 nM | 1000 to 2000 nM | > 2000 nM |  |  | Nc1ccc(-c2ccc(F)s2)nc1NC(=O)N1CCC(c2ncc(F)cn2)C1 (single isomer, unassigned) [Compound 43]
 | 1000 to 2000 nM |  |  |  | Cc1ccnc(CC2CCN(C(=O)Nc3nc(-c4ccc(F)cc4F)ccc3N)C2)n1 (centres unmarked) [Compound 27]
500 to 1000 nM | 1000 to 2000 nM | < 500 nM |  |  | Nc1ccc(-c2ccc(F)cc2)nc1NC(=O)N1CCC(c2ncccn2)C1 (single isomer, unassigned) [Compound 19E1]
500 to 1000 nM | > 2000 nM | 1000 to 2000 nM |  |  | Nc1ccc(-c2ccc(F)cc2F)nc1NC(=O)N1CCC(c2ccccc2)C1 (centres unmarked) [Compound 4]
1000 to 2000 nM | 1000 to 2000 nM | 1000 to 2000 nM | 1420 nM |  | Nc1ccc(-c2ccc(F)cc2F)nc1NC(=O)N1CCC(Cc2ncccn2)C1 (centres unmarked) [Compound 24]
500 to 1000 nM | 1000 to 2000 nM | 500 to 1000 nM |  |  | Nc1ccc(-c2ccc(F)cc2)nc1NC(=O)N1CCC(c2ncc(F)cn2)C1 (single isomer, unassigned) [Compound 20E1]
 | 1000 to 2000 nM |  |  |  | Cc1nnc(C2CCN(C(=O)Nc3nc(-c4ccc(F)cc4F)ccc3N)C2)s1 (centres unmarked) [Compound 32]
1000 to 2000 nM | 500 to 1000 nM | > 2000 nM |  |  | Nc1ccc(-c2ccc(F)cc2F)nc1NC(=O)N1CCC(Cc2ncccn2)C1 (single isomer, unassigned) [Compound 25E2]
< 500 nM | 1000 to 2000 nM | 500 to 1000 nM |  |  | Cc1ccnc(C2CCN(C(=O)Nc3nc(-c4ccc(F)cc4)ccc3N)C2)n1 (single isomer, unassigned) [Compound 51]
500 to 1000 nM | 1000 to 2000 nM | 1000 to 2000 nM |  |  | Nc1ccc(-c2ccccc2F)nc1NC(=O)N1CCC(c2ncccn2)C1 (centres unmarked) [Compound 48]
< 500 nM | 1000 to 2000 nM | 1000 to 2000 nM |  |  | Nc1ccc(-c2cccs2)nc1NC(=O)N1CCC(c2ncc(F)cn2)C1 (centres unmarked) [Compound 49]
< 500 nM | < 500 nM | < 500 nM | 421 nM | greater potency | Nc1ccc(-c2ccc(F)cc2)nc1NC(=O)N1CCC(c2ncccn2)C1 (centres unmarked) [Compound 19]
500 to 1000 nM | 1000 to 2000 nM | 500 to 1000 nM |  |  | Nc1ccc(-c2ccc(F)cc2)nc1NC(=O)N1CCC(F)(c2ncccn2)C1 (single isomer, unassigned) [Compound 54]
1000 to 2000 nM | > 2000 nM | > 2000 nM |  |  | Nc1ccc(-c2ccc(F)cc2F)nc1NC(=O)N1CCC(c2cccnc2)C1 (centres unmarked) [Compound 2]
 | > 2000 nM |  |  |  | Nc1ccc(-c2ccc(F)cc2F)nc1NC(=O)N1CC[C@H](Oc2cccnc2)C1 [Compound 6]
< 500 nM | 500 to 1000 nM | < 500 nM |  |  | Nc1ccc(-c2ccc(F)cc2)nc1NC(=O)N1CCC(c2ncc(F)cn2)C1 (single isomer, unassigned) [Compound 20E2]
< 500 nM | 500 to 1000 nM | 500 to 1000 nM |  |  | Nc1ccc(-c2ccc(F)cc2F)nc1NC(=O)N1CCC(c2ncc(F)cn2)C1 (single isomer, unassigned) [Compound 14E1]
500 to 1000 nM | 500 to 1000 nM | 500 to 1000 nM | 550 nM |  | Cc1cnc(C2CCN(C(=O)Nc3nc(-c4ccc(F)cc4F)ccc3N)C2)cn1 (centres unmarked) [Compound 18]
< 500 nM | 1000 to 2000 nM | 500 to 1000 nM |  |  | Cc1ccnc(C2CCN(C(=O)Nc3nc(-c4ccc(F)cc4F)ccc3N)C2)n1 (centres unmarked) [Compound 10]
 | 1000 to 2000 nM |  |  |  | Cc1ccc(CC2CCN(C(=O)Nc3nc(-c4ccc(F)cc4F)ccc3N)C2)nn1 (centres unmarked) [Compound 28]
 | 1000 to 2000 nM |  |  |  | Cc1cncc(C2CCN(C(=O)Nc3nc(-c4ccc(F)cc4F)ccc3N)C2)n1 (centres unmarked) [Compound 17]
